One test concerns TB. Kind of test: MIC of control anti-tuberculosis antibiotics. In kind it is cell-based, M. tuberculosis. The following applies: Mycobacterium tuberculosis.
For test [1], the system named is carbon-starved M. tuberculosis H37Rv. The test can be described thus: Non-replicating IC90 determination by luciferase (carbon-starved cells). In kind it is cell-based. As to conditions: FIG. 1C; read-out: IC90 for non-replicating starved cells by luciferase assay.
Test [2] concerns replicating M. tuberculosis H37Rv. In kind it is cell-based. As to conditions: FIG. 1A; read-out: IC90 against replicating, logarithmically growing bacteria measured by OD600 (converted).
Test [3] shares this test system. Kind of test: microbe, parasite or virus in culture. Format: cell-based. As to conditions: for Against Replicating Mtb, % @ 62: at 62 uM.
Test [4] relates to carbon-starved M. tuberculosis H37Rv. Kind of test: microbe, parasite or virus in culture. Format: cell-based.

Where two headings read alike, the source gives them in different places. Some results are limits rather than exact numbers.

Regarding `NNC(=O)c1ccncc1` [INH, isoniazid], the MIC in the test on TB is 0.1 µg/mL.

Take `Clc1ccc(-c2nnc(SCc3cn(-c4ccccc4)nn3)o2)cc1`: the IC90 is more than 62 µM in test [1]; more than 62 µM in test [2]; more than 62 µM in test [3] (FIG. 1B, read-out: IC90 against replicating, logarithmically growing bacteria measured by CFU/mL (converted)); 1 µM in test [4] (FIG. 1D, read-out: IC90 against non-replicating, starved cells by CFU/mL).

As for `[O-][S+](Cc1cn(Cc2ccccc2)nn1)c1nnc(-c2ccc(Cl)cc2)o1` (centres unmarked) [drawing 272], the “Against Replicating Mtb, % @ 62” value in test [3] ([…]) is on record as 100% @ 62. Further, the “Against carbon starving non-replicating Mtb, % @ 31” value in test [4] ([…], at 31 uM) is recorded as 100% @ 31.

With `CO[C@H]1/C=C/O[C@@]2(C)Oc3c(C)c(O)c4c(O)c(c(/C=N/N5CCN(C)CC5)c(O)c4c3C2=O)NC(=O)/C(C)=C\C=C\[C@H](C)[C@H](O)[C@@H](C)[C@@H](O)[C@@H](C)[C@H](OC(C)=O)[C@@H]1C` [rifampin], the MIC with TB is 0.01 µg/mL.

Turning to `COc1ccc(CSc2nnc(-c3ccc(Cl)cc3)o2)nc1` [drawing 275], the “Against Replicating Mtb, % @ 16 (7 d)” value in test [3] ([…], at 16 uM, 7 d) is 99.5% @ 16 (7 d). The “Against carbon starving non-replicating Mtb, % @ 4” value in test [4] is on record as 99% @ 4.

Take `c1ccc(-c2nnc(SCc3ccccn3)o2)cc1` [drawing 261]: in test [3] ([…], at 125 uM), the “Against Replicating Mtb, % @ 125” value was 99% @ 125. In addition, the IC90 in test [4] (Mycobacterium tuberculosis, H37RV, read-out: Against carbon starving non-replicating Mtb IC90) turned out to be 4 µM.

For the compound `COc1cccc(-c2nnc(SCc3ccccn3)o2)c1` [drawing 274], the “Against Replicating Mtb, % @ 62” value in test [3] ([…]) worked out at 99% @ 62. Further, the “Against carbon starving non-replicating Mtb, % @ 16” value in test [4] ([…], at 16 uM) is 99% @ 16.

Values taken from patent publication US10301294B2, “Compounds for the treatment of tuberculosis” (priority 2013, dated 2019).
